{"source": "patent US20100286233A1", "about": "“PERIPHERAL AND NEURAL INFLAMMATORY CROSSTALK” (University of Rochester, priority 2006, published 2010)", "molecules": {"B1": {"name": "IL-1β: murine interleukin-1β cytokine injected into the cisterna magna (protein, UniProt P10749 118-269, looked up)", "Interleukin-1 beta": "VPIRQLHYRLRDEQQKSLVLSDPYELKALHLNGQNINQQVIFSMSFVQGEPSNDKIPVALGLKGKNLYLSCVMKDGTPTLQLESVDPKQYPKKKMEKRFVFNKIEVKSKVEFESAEFPNWYISTSQAEHKPVFLGNNSGQDIIDFTMESVSS"}}, "key": {"[1]": {"test_system": "C2C12 cell line", "test": "C2C12 conversion to osteoblastic phenotype, alkaline phosphatase histochemistry", "format": "cell-based", "protocol": "In vitro studies: The C2C12 cell line, an in vitro model of chondrocyte differentiation and maturation, was obtained from ATCC and cultured in DMEM plus 10% normal bovine serum for 4 days as previously described (Katagiri, T., et al. 1994). In addition, cells were treated with BMP-2 (300 ng/mL) or alternatively with BMP-2 plus PGE2 (10^−8M) or recombinant IL-1β (10 ng/mL) or butaprost (10^−8M) in the culture medium. At the end of the experiment, cells were fixed with 10% formalin. Alkaline phosphatase expression was evaluated using the BCIP/NBT histochemistry method (Vector Labs, Burlingame Calif.). Positively-stained cells were counted in 10 random 20× fields using an inverted Olympus CK41 microscope."}, "[2]": {"test_system": "avian mesenchymal limb bud cells", "details": "cited from earlier work"}, "[3]": {"test_system": "growth plate", "details": "systemic injection; cited from earlier work"}, "[4]": {"target": "μ-receptors (Homo sapiens, UniProt P35372)", "sequence (P35372 whole entry)": "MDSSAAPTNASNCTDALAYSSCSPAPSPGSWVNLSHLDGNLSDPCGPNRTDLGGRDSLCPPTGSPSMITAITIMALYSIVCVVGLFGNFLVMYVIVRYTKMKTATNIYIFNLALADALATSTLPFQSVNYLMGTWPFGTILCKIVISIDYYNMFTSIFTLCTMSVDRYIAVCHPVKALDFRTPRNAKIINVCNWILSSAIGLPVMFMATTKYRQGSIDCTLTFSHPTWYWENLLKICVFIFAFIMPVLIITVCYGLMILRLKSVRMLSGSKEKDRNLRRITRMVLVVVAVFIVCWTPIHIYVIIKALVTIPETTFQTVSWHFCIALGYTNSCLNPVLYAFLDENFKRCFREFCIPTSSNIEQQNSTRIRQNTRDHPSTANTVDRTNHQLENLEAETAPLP", "details": "cited from earlier work"}, "[5]": {"target": "δ-receptors (Homo sapiens, UniProt P41143)", "sequence (P41143 whole entry)": "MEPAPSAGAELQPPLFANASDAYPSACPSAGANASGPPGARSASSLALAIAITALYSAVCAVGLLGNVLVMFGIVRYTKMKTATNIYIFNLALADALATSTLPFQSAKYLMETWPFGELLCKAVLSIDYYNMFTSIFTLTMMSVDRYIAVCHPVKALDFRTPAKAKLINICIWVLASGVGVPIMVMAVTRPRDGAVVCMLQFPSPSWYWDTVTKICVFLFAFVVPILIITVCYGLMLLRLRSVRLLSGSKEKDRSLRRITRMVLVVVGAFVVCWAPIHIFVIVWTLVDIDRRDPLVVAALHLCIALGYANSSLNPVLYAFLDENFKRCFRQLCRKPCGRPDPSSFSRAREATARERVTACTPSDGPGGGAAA", "details": "cited from earlier work"}, "[6]": {"target": "κ-receptors (Homo sapiens, UniProt P41145)", "sequence (P41145 whole entry)": "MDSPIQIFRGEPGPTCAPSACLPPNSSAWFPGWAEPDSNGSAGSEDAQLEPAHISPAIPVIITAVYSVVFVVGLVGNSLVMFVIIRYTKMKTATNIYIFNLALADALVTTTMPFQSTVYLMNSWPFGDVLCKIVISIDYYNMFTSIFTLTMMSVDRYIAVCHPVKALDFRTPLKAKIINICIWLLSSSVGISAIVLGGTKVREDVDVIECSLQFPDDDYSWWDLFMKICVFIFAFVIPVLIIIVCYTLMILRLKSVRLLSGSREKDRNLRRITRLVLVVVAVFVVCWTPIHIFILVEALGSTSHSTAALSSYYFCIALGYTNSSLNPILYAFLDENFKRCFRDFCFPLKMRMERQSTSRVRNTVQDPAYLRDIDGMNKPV", "details": "cited from earlier work"}, "[7]": {"test_system": "μ-receptor", "details": "in vivo; cited from earlier work"}, "[8]": {"test_system": "mice", "details": "cited from earlier work"}, "[9]": {"target": "mouse recombinant DOR-1 receptor (Mus musculus, UniProt P32300)", "sequence (P32300 whole entry)": "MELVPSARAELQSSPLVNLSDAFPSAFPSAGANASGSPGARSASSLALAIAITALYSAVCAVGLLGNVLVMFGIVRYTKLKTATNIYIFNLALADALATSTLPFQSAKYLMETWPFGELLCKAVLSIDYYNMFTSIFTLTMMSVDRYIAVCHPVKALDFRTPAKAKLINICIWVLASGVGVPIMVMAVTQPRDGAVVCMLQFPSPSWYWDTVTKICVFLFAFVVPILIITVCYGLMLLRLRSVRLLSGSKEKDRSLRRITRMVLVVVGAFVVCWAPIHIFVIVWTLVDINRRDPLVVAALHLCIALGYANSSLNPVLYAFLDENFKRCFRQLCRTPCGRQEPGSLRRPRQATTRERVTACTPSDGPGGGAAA", "details": "cited from earlier work"}, "[10]": {"test_system": "C57BL/6 mice", "test": "Intracisternal IL-1β injection, brain stem IHC for GFAP and CGRP", "format": "in vivo, mouse", "details": "2 ng in 2 μl into the cisterna magna, two days later", "procedure": "Murine IL-1β (2 ng in 2 μl of normal saline) was injected […] in the cisterna magna of deeply anesthetized C57BL/6 mice (anesthetic: ketamine 40 mg/kg IP). Two days later, the mice were sacrificed, […] transcardially with 4% paraformaldehyde in phosphate buffered saline solution and the brain stem was harvested, frozed and cut at 18 μm thick horizontal sections which were collected on glass slides. The histology slides were then analyzed by immunohistochemistry (IHC) using antibodies raised against calcitonin gene-related peptide (CGRP; […]) and glial fibrillary acidic protein (GFAP; Dako)."}, "[11]": {"details": "MOR-1 knockout mice, disruption in exon-1"}}, "note": "Where two headings read alike, the source gives them in different places."}
{"molecule": "CCCCC[C@H](O)/C=C/[C@H]1[C@H](O)CC(=O)[C@@H]1C/C=C\\CCCC(=O)O", "note": "[PGE2, prostaglandin E2]", "values": [{"measurement": "increase in the number of cells expressing alkaline phosphatase", "setting": "[1]; BMP-2 plus PGE2 (10^-8M), 4 days, versus BMP-2", "value": "approximately 5 fold"}, {"measurement": "conversion of differentiating C2C12 cells to an osteoblastic phenotype", "setting": "[1]; under the stimulus of BMP-2", "value": "acceleration of their conversion to an osteoblastic phenotype"}, {"measurement": "chondrogenesis", "setting": "[2]", "value": "enhances chondrogenesis"}, {"measurement": "chondrogenesis", "setting": "[2]; in the presence of indomethacin", "value": "stimulates chondrogenesis"}, {"measurement": "growth plate and limb growth", "setting": "[3]", "value": "thinner growth plate with decreased size of hypertrophic chondrocytes and reduced limb growth"}]}
{"molecule": "β-endorphin: endogenous opioid peptide from pro-opiomelanocortin, SEQ ID NO: 129", "values": [{"measurement": "affinity for μ-receptors", "setting": "[4]", "value": "equiactive at μ- and δ-receptors"}, {"measurement": "affinity for δ-receptors", "setting": "[5]", "value": "equiactive at μ- and δ-receptors"}, {"measurement": "affinity for κ-receptors", "setting": "[6]", "value": "much lower affinity"}]}
{"molecule": "C=CCN1CC[C@]23c4c5ccc(O)c4O[C@H]2/C(=N\\N)CC[C@@]3(O)[C@H]1C5", "note": "[naloxazone]", "values": [{"measurement": "induction of morphine dependence", "setting": "[7]", "value": "did not block"}, {"measurement": "morphine-induced antinociception", "setting": "[7]", "value": "selectively blocked"}, {"measurement": "morphine-induced respiratory depression", "setting": "[7]", "value": "did not block"}]}
{"molecule": "CN1CC[C@]23c4c5ccc(O)c4O[C@H]2[C@@H](O)C=C[C@H]3[C@H]1C5", "note": "[morphine]", "values": [{"measurement": "antinociception", "setting": "[8]; [11]", "value": "not"}, {"measurement": "antinociception", "setting": "[8]; mice of the CXBX strain", "value": "poor antinociceptive agent"}]}
{"molecule": "Oc1ccc2c3c1O[C@H]1c4oc5ccccc5c4C[C@@]4(O)[C@@H](C2)N(CC2CC2)CC[C@]314", "note": "[naltriben, Naltriben]", "values": [{"measurement": "displacement of [3H]-diprenorphine binding", "setting": "[9]", "value": "more highly displaced by naltriben than BNTX"}]}
{"molecule": "CC(=O)Oc1ccc2c3c1O[C@H]1[C@@H](OC(C)=O)C=C[C@H]4[C@@H](C2)N(C)CC[C@@]341", "note": "[heroin]", "values": [{"measurement": "antinociception", "setting": "[8]; [11]", "value": "still produce antinociception"}, {"measurement": "antinociception", "setting": "[8]; mice of the CXBX strain", "value": "potently antinociceptive"}]}
{"molecule": "CN1CC[C@]23c4c5ccc(O)c4O[C@H]2[C@@H](O[C@@H]2O[C@H](C(=O)O)[C@@H](O)[C@H](O)[C@H]2O)C=C[C@H]3[C@H]1C5", "note": "[morphine-6b-glucuronide]", "values": [{"measurement": "antinociception", "setting": "[8]; [11]", "value": "still produce antinociception"}, {"measurement": "antinociception", "setting": "[8]; mice of the CXBX strain", "value": "potently antinociceptive"}]}
{"molecule": "COc1ccc2c(c1)c(CC(=O)O)c(C)n2C(=O)c1ccc(Cl)cc1", "note": "[indomethacin]", "values": [{"measurement": "chondrogenesis", "setting": "[2]", "value": "inhibit chondrogenesis"}]}
{"molecule": "B1", "values": [{"measurement": "expression of CGRP in the descending trigeminal nucleus (medullary dorsal horn)", "setting": "[10]", "value": "induced"}, {"measurement": "expression of GFAP in the descending trigeminal nucleus (medullary dorsal horn)", "setting": "[10]", "value": "induced"}]}
